Like-named read-outs stand apart in the source and are kept apart here. Values belong to the compound of their own block, whether it stands above or below them.
Columns and labels:
[1] = Qualitative solubility of the HTM in chlorobenzene (spin-coat solution); assay type: physicochemical; conditions: for solubility: organic solvent or mixture; for solubility compared with reference materials: in words
Procedure: A solution for a spin-coat is prepared in a N2 glove box as follows: at first, 20 mg of a hole transport material is dissolved in 95 μL of chlorobenzene. The hole transport material needs to be dissolved completely. A mother solution of lithium bis(trifluorosulfonyl)imide (LiTFSI) and tert-butylpyridine (TBP) is prepared separately at room temperature and is added to the hole transporter solution to set the molar ratio to [hole transporter]:[LiTFSI]:[TBP]=10:1:10 at room temperature. Thus the final volume of the solution is 100 μL.
The solubility of the HTMs according to examples 1, 2 and 3 are evaluated qualitatively:
1 means: 20 mg of HTM is completely dissolved without heating
2 means: HTM is dissolved after heating to 80° C.
3 means: HTM is dissolved after adding salt and base solution and heating to 80° C.
4 means: HTM is dissolved after adding another 50 μL of chlorobenzene and heat to 80° C. (final folume 150 μl).

[2] = Hole mobility by impedance spectroscopy; assay type: physicochemical; conditions: for Hole mobility: ITO/PEDOT-PSS/HTM(400 nm)/Au cell, dc field intensity 10^5V/cm, four cells
Procedure: The hole mobility of the inventive compound 2,2′,7,7′-tetrakis-(N,N′-di-4-methoxy-3-methylphenylamine)-9,9′-spirobifluorene is measured and the value is compared with those of the reference materials according to example 2 and example 3.
The structure of the measurement cell is ITO(200 nm)/PEDOT-PSS(150 nm)/HTM(400 nm)/Au(60 nm).
The measurement is carried out using four cells for each HTM by means of impedance spectroscopy. (Ref. 1. H. Martens et al., Phys. Rev. B, 60, R8489 (1999), Ref. 2. S. Ishihara, et al., Proc. of IDW'09, p 1085 (2009)). In the impedance measurement, a direct current (dc) voltage is applied to the test cell in order to inject holes from an anode. The hole mobility is determined under the dc field intensity of 10^5V/cm.

[3] = order of magnitude, background; cited from earlier work
[4] = 20 mg of HTM in 95 μL chlorobenzene completely dissolved without heating, read-out: solubility grade 1

solubility grade 4 ([1]; HTM dissolved after adding another 50 μL of chlorobenzene and heat to 80° C., final volume 150 μl): ✓ | solubility ([1]; chlorobenzene with LiTFSI and tert-butylpyridine solution, HTM dissolved after adding salt and base solution and heating to 80° C., read-out: solubility grade 3): < 210 mg/mL | solubility ([1]; chlorobenzene, HTM dissolved after heating to 80° C., read-out: solubility grade 2): < 210 mg/mL | solubility [1, 4]: < 210 mg/mL | Hole mobility [2]: 9.34E−06 cm^2/Vs
SMILES: COc1c(C)cc(N(c2cc(C)c(OC)c(C)c2)c2ccc3c(c2)C2(c4cc(N(c5cc(C)c(OC)c(C)c5)c5cc(C)c(OC)c(C)c5)ccc4-3)c3cc(N(c4cc(C)c(OC)c(C)c4)c4cc(C)c(OC)c(C)c4)ccc3-c3ccc(N(c4cc(C)c(OC)c(C)c4)c4cc(C)c(OC)c(C)c4)cc32)cc1C [Example 3]

solubility grade 1 ([1]; 20 mg of HTM in 95 μL chlorobenzene completely dissolved without heating): ✓ | solubility compared with reference materials ([1]; listed as compound of formula (I)): better solubility than spiro-OMeTAD | Hole mobility [2]: 1.29E−04 cm^2/Vs
SMILES: COc1ccc(N(c2ccc(OC)c(C)c2)c2ccc3c(c2)C2(c4cc(N(c5ccc(OC)c(C)c5)c5ccc(OC)c(C)c5)ccc4-3)c3cc(N(c4ccc(OC)c(C)c4)c4ccc(OC)c(C)c4)ccc3-c3ccc(N(c4ccc(OC)c(C)c4)c4ccc(OC)c(C)c4)cc32)cc1C [Example 1, 2,2′,7,7′-tetrakis-(N,N′-di-4-methoxy-3-methylphenylamine)-9,9′-spirobifluorene]
solubility compared with reference materials ([1]; listed as hole transport material according to the invention): better solubility than the reference materials

hole mobility compared with reference example 3 ([2]; in words): more than one order of magnitude larger
SMILES: COc1ccc(N(c2ccc(OC)c(C)c2)c2ccc3c(c2)C2(c4cc(N(c5ccc(OC)c(C)c5)c5ccc(OC)c(C)c5)ccc4-3)c3cc(N(c4ccc(OC)c(C)c4)c4ccc(OC)c(C)c4)ccc3-c3ccc(N(c4ccc(OC)c(C)c4)c4ccc(OC)c(C)c4)cc32)cc1C
hole mobility compared with spiro-OMeTAD ([2]; in words): larger than the hole mobility of spiro-OMeTAD

SMILES: COc1ccc(N(c2ccc(OC)cc2)c2ccc3c(c2)C2(c4cc(N(c5ccc(OC)cc5)c5ccc(OC)cc5)ccc4-3)c3cc(N(c4ccc(OC)cc4)c4ccc(OC)cc4)ccc3-c3ccc(N(c4ccc(OC)cc4)c4ccc(OC)cc4)cc32)cc1 [Example 2, 2,2′,7,7′-tetrakis-(N,N′-di-4-methoxyphenylamine)-9,9′-spirobifluorene]
solubility grade 2 ([1]; HTM dissolved after heating to 80° C.): ✓ | solubility [1, 4]: < 210 mg/mL | Hole mobility [2]: 1.08E−04 cm^2/Vs | charge carrier mobility [3]: ~10^−4 cm^2/Vs

Reference: patent US9997714B2, “Hole transport material” (MERCK PATENT GMBH, priority 2013, dated 2018)
